# Measured values taken from US7863415B2 (The Regents of the University of California, priority 2004, dated 2011).
# Entries after “also recorded” stand apart in the source; their conditions may differ. Starred links: 1 amine or outer side, 2 acyl side, 3 side chain; linkers in the order of their positions; H or OH if unused. Non-standard residues stand in square brackets, D forms with d. Residues, ends and D or L forms follow the SMILES beside them. X1 = N=C(N)NC(=O)c1nc(Cl)c(N(CC(=O)[*:2])[*:1])nc1N
# Legend:
# U87 cells = assay: Intracellular translocation into U87 cells by fluorescence microscopy; settings: 50 μM; 90 and 180 min; 380 nm excitation, 510 nm emission
# Source text: Fluorescence Microscopy. […] Excitation light was provided by a xenon arc lamp coupled to the Polychrome IV scanning monochromator (Till Photonics; Grafelfing, Germany) that alternately excites with different wavelengths. Excitation light was delivered by fiber optics to cells through the epifluorescence port of a Nikon E600 microscope coupled to a Nikon Fluor 60× water immersion lens. The detector was an Orca II-ER CCD digital camera (Hamamatsu USA; Bridgewater, N.J.), which is controlled by C-Imaging Simple PCI software (Compix; Cranberry Township, Pa.).
# Intracellular emission intensities were collected in regions of interest (ROI) from an average of 4-8 cells/field using Simple PCI imaging software. […] Images were captured as TIFF files (C-imaging Simple PCI software), and light and fluorescent images of the same field were imported in Photoshop 6.0 and vector graphics added using Illustrator 9.0.1 (Adobe; San Jose, Calif.).
# trypsin = target: T1, trypsin (Bos taurus, UniProt P00760); assay: Enzyme digestion with trypsin (negative control), LC-MS/ESI; type: in vitro ADME, bovine; settings: for Conclusion (Peptidase: Trypsin): 10 μM conjugate, 10 units enzyme, 25° C., pH 7.4, 24 h; for Cleavage by trypsin (release of compound 3a): 24 h incubation, LC-MS
# T1 construct: purchased CalBiochem (San Diego, Calif.); host or cells: bovine pancreas
# T1 sequence (P00760 24-246): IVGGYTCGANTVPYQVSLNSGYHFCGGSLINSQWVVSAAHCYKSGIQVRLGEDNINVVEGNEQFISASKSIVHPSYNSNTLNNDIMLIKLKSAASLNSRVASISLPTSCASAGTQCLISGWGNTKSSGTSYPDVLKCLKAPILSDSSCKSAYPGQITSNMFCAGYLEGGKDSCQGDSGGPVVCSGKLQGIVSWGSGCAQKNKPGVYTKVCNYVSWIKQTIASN
# Protocol: (§1) Compound 3b is a C5am-Gly-peptide conjugate containing two D-amino acids, and compound 3c is a C5am-Gly-peptide conjugate coupled to a peptide to generate an analog of opioid peptides that cross the blood brain barrier (BBB). The resultant conjugates (compounds 3a-c) were tested for selective cleavage by the brain peptidase enkephalinase (neutral endopeptidase 24.11; Calbiochem) via incubation for 24 h in the presence or absence of the enzyme, and aliquots from the reaction solutions were then analyzed by LC-MS to identify the C5am-Gly conjugate (compound 3a), starting material, and enzymatic cleavage products (see, Scheme 3). As negative control experiments, the conjugates were analyzed following treatment with (1) bovine pancreatic trypsin (Calbiochem) or (2) the buffer solutions without enzymes.
# (§2) Enzyme digestion. Endopeptidase 24.11 (neutral, porcine kidney) and trypsin (bovine pancreas) were purchased from CalBiochem (San Diego, Calif.) and used as received. Enzymatic cleavage experiments using endopeptidase 24.11 were conducted at 25° C. in a pH 7.4 Tris buffer (150 mM NaCl, 50 mM Tris, 0.1% Triton X-100) as recommended by the manufacturer (see also, Barnes et al., J. Neurochem., 64:1826-1832 (1995), Gafford et al., Biochemistry, 22:3265-3271 (1983)). Similarly, trypsin cleavage experiments were conducted at 25° C. in pH 7.4 Dulbecco's phosphate buffered saline (Gibco; Grand Island, N.Y.). The digestion reactions included 10 μM of the amiloride-peptide conjugate and 10 units of enzyme in 250 μL of buffer. Direct aliquots were analyzed by LC-MS/ESI following a 24 hour incubation period.
# (§3) Enzyme Digestion Study. Compounds 3a-d were each incubated at 25° C. with 10 units of enkephalinase (endopeptidase 24.11) to determine their susceptibility towards enzymatic cleavage. Reaction aliquots were taken following a 24 hour incubation period and analyzed directly by LC-MS/ESI (Thermo Finnigan LCQ) for the presence of the starting material and the targeted cleavage product, compound 3a (C5am-Gly). […] Since there are no basic amino acid residues in compounds 3a-d, trypsin was employed as a negative control to ensure that any observed cleavage products could be ascribed only to endopeptidase-specific interactions (Jackson, Protein Science, 8:603-613 (1999)).
# NHE1 = NHE1 (Homo sapiens, UniProt P19634); assay: NHE1 inhibition: sodium-dependent pHi recovery in BCECF-loaded U87 glial cells after ammonium chloride pre-pulse; type: cell-based; design: Sodium-dependent proton extrusion in U87 glial cells and in primary astrocytes is mediated by the type 1 sodium proton exchanger (NHE1); endogenous in cells; host or cells: U87 human glioma cells
# NHE1, sequence (P19634 whole entry): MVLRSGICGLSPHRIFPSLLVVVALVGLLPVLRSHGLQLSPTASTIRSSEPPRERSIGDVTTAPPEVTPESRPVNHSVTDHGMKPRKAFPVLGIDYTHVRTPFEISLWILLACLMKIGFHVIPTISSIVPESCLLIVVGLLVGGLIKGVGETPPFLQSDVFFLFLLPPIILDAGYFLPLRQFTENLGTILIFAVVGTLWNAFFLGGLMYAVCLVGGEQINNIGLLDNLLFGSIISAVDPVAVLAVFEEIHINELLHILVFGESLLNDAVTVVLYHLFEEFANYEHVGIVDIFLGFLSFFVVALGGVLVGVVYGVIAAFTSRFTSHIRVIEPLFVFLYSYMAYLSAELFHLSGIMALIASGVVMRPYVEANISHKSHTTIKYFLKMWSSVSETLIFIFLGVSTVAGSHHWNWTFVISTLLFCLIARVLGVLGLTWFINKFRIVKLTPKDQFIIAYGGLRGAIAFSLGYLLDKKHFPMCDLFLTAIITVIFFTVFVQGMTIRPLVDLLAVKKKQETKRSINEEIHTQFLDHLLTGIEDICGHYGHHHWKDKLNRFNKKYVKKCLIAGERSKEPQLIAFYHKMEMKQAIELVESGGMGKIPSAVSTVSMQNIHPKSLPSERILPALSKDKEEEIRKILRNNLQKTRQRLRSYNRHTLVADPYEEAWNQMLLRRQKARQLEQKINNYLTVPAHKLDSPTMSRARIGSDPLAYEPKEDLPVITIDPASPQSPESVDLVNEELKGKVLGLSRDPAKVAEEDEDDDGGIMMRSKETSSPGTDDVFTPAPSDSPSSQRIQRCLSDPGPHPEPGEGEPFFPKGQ
# Protocol: Intracellular pH Measurements. U87 glial cells were grown on glass coverslips and incubated for 30 minutes at 37° C. with the pH-sensitive dye, 2′,7′-bis(2-carboxyethyl)-5(6)-carboxyfluorescein-AM (BCECF-AM; Molecular Probes, OR). Cells were rinsed with HEPES Ringer buffer twice and maintained at 37° C. for an additional 15 minutes to permit intracellular hydrolysis of the AM ester; trapping BCECF within the cells. Cells on coverslips were placed in a Hitachi F2000 fluorescent spectrophotometer and excited at 440 and 507 nm with fluorescent emissions recorded at 535 nm (Hegde et al., J. Pharmacol. Exp. Ther., 310:67-74 (2004)).
# NHE inhibition by compounds 3a and 3c was evaluated using intracellular pH (pHi) measurements in the U87 human glial cell line (Hegde et al., supra). Cells loaded with BCECF were then acidified using the ammonium chloride pre-pulse method (Roos et al., Physiol Rev, 61:296-434 (1981)). The subsequent sodium-dependent recovery of pHi by these cells in the absence of bicarbonate was monitored using a spectrofluorometer. Sodium-dependent proton extrusion in U87 glial cells and in primary astrocytes is mediated by the type 1 sodium proton exchanger (NHE1) (McLean et al., supra; Hegde et al., supra) and was monitored in the presence or absence of compound 3a or 3c.
# IC50 drug determinations for NHE1. This method utilizes spectrofluorometric measurements of [H^+]i as described above. The ammonium chloride prepulse method can be used to acidify cells in the presence of HR that is sodium-substituted with NMDG. Perfusion of the acidified cells with HR that contains sodium causes activation of NHE1 that is inhibited in a concentration-dependent fashion as described in McLean et al., supra.
# U87 glioma cells [1] = assay: Glioma cell proliferation, manual cell counts with trypan blue; type: cell-based, human
# Protocol: C(5)-amiloride glycine conjugate (C5am-Gly) inhibits NHE1 in U87 glioma cells and is antiproliferative. […] The inhibitory activity of C5am-Gly against NCX was tested and a systematic log dose screen of C5am-Gly against a panel of glioma cells and primary astrocytes was performed.
# Manual cell counts with dye exclusion assays. Identical concentrations of glioma cells can be plated on 60 mm dishes and grown until 50% confluent. Following drug treatments, media containing floating cells can be collected in suspension. Adherent cells can be rinsed in calcium- and magnesium-free phosphate-buffered saline (PBS-CMF) and removed by incubation with 0.25% v/v trypsin for 5 minutes (37° C.). Cell suspensions can be combined with the floating fraction and centrifuged at 350×g for 5 minutes. The resulting pellet (one per dish) can be resuspended in equal volumes of PBS-CMF with 0.4% trypan blue and/or 500 nM Sytox Green. 10 μL aliquots of the suspension can be plated on a hemocytometer, and cells can be counted 5 minutes after staining. Simultaneous staining of cells with trypan (TB) and Sytox Green (SG) can be visualized by switching between visible light and fluorescein green.
# [2] = system: enkephalinase (endopeptidase 24.11); assay: Enzyme digestion with enkephalinase, LC-MS/ESI; type: in vitro ADME, porcine; settings: for Conclusion (Peptidase: Enkephalinase): 10 μM conjugate, 10 units enzyme, 25° C., pH 7.4, 24 h; for Cleavage by enkephalinase (release of compound 3a): 24 h incubation, LC-MS
# Protocol: as §1, §2, §3
# [3] = Incubation in buffer solutions without enzymes, LC-MS; type: in vitro ADME
# Protocol: as §1
# [4] = system: glioma in poorly vascularized tumor regions; assay: Single intracerebral infusion of DCB in tumor-bearing animals; type: in vivo; settings: 10 pmol over 2 h
# Protocol: Unfortunately, DCB was associated with 4 of 5 animals dying during the following 12 to 24 h.
# [5] = system: [Ca^2+]i in U87 glioma cells; assay: [Ca2+]i in U87 glioma cells loaded with fura-2AM, quantitative fluorescent microscopy; type: cell-based, human
# Protocol: Therefore, the levels of [Ca^2+]i in U87 glioma cells loaded with fura-2AM were measured using quantitative fluorescent microscopy. […] The ATP-dependent calcium regulatory mechanisms within U87 glioma cells containing fura-2 were then examined. […] ATP synthase operates in reverse when milimolar concentrations of calcium are stored by the mitochondrion (Nicholls, Bioenergetics, 3, Academic Press, London, 3rd edition (2002)).
# Quantitative fluorescent microscopy of [Ca^2+]i levels. [Ca^2+]i levels can be measured in cells loaded with either fura-2A or fura-2FFAM under the conditions described above.
# U87 glioma cells [6] = assay: Glioma cell death, manual cell counts with trypan blue exclusion
# NHE1 and NCX = NHE1 and NCX inhibitors from the literature; cited from earlier work
# [7] = system: glioma cells and primary astrocytes; assay: Cell entry by confocal microscopy; type: in vitro ADME
# [8] = system: T2, Compound 3d (C5am conjugate of the peptide Gly-Gly-Gly-Phe-Leu)
# T2 sequence: GGGFL
# [9] = system: T3, Compound 3c (C5am-Gly-Gly-Gly-Gly-Phe-Leu-OH)
# T3 sequence: GGGGFL
# [10] = system: T4, Compound 3b (C5am-Gly-D-Ala-Gly-Phe-D-Leu-OH)
# T4 sequence: GXGFX
compound,measurement,setting,value
N=C(N)NC(=O)c1nc(Cl)c(NCC(=O)O)nc1N [Compound 3a],Intracellular accumulation in U87 cells,U87 cells,no intracellular fluorescence above mean intracellular background; also recorded: failed to detect; also recorded: did not accumulate
same,Conclusion (Peptidase: Trypsin),trypsin,Trypsin resistant
same,Cleavage by trypsin (release of compound 3a),trypsin,unaffected; also recorded: stable
same,IC50,"NHE1; U87 glial cells, sodium-dependent pHi recovery without bicarbonate, read-out: IC50 (μM) +/− SD (NHE inhibition)",13 ± 7 µM
same,Glioma Effect: antiproliferative concentration,U87 glioma cells [1]; glioma cells,≦100 μM antiproliferative
same,"Proliferation of U87 glioma cells, % of stage-matched controls","U87 glioma cells [1]; ≦100 μM, 48 h",22%
same,Conclusion (Peptidase: Enkephalinase),[2],Enkephalinase resistant
same,Cleavage by enkephalinase (release of compound 3a),[2],unaffected; also recorded: stable
same,Stability in control (buffer) digestion,[3],unaffected
"CC(C)C[C@@H](NC(=O)[C@H](Cc1ccccc1)NC(=O)CNC(=O)[C@@H](C)NC(=O)CNc1nc(N)c(C(=O)NC(=N)N)nc1Cl)C(=O)O [Compound 3b, C5am-Gly-D-Ala-Gly-Phe-D-Leu-OH] (H-[X1][dA]GF[dL]-OH)",Conclusion (Peptidase: Trypsin),trypsin,Trypsin resistant
same,Cleavage by trypsin (release of compound 3a),trypsin,not cleaved; also recorded: resistant
same,Conclusion (Peptidase: Enkephalinase),[2],Enkephalinase resistant
same,Cleavage by enkephalinase (release of compound 3a),[2],not cleaved; also recorded: resistant
same,Stability in control (buffer) digestion,[3],not cleaved
"N=C(NCc1ccc(Cl)cc1Cl)NC(=O)c1nc(Cl)c(N)nc1N [DCB, 2,4-dichlorobenzamil]",Animals dying during the following 12 to 24 h,[4],4 of 5
same,Glioma death within poorly vascularized tumor regions (histology),[4],extensive glioma death
same,Effect of pretreatment on [Ca2+]i after calcium release from mitochondrial stores,"[5]; U87 glioma cells, FCCP or oligomycin",increase to cytotoxic levels
same,Persistent increase of [Ca2+]i,[5]; pretreatment followed by oligomycin or FCCP,> 800 nM
same,Concentration that killed U87 glioma cells,"U87 glioma cells [6]; U87 glioma cells, C2am-Gly within 24 h",15 µM
same,Glioma Effect: cytotoxic concentration,U87 glioma cells [6]; glioma cells,15 μM cytotoxic
same,Concentration that killed glioma cells,"U87 glioma cells [6]; glioma cells, amiloride within 48-72 hours",≥ 20 µM
same,Rel. Activity,NHE1 and NCX,NCX > NHE
same,Concentration that inhibits NHE1 and reduces pHi,NHE1; U87 glioma cells loaded with BCECF,50-100 nM
same,Time to enter glioma cells and primary astrocytes,[7],≤ 150 min
"Enkephalinase (neutral endopeptidase 24.11, porcine kidney; CalBiochem)","Enzymatic digestion, LC-MS fragments at 24 h; Conclusion",[8],Enkephalinase resistant
same,"Enzymatic digestion, LC-MS fragments at 24 h; Conclusion",[9],Enkephalinase-mediated release of 3a
same,"Enzymatic digestion, LC-MS fragments at 24 h; Conclusion",[10],Enkephalinase resistant
